Test system: abdominal aortic aneurysm
Experiment: rat abdominal aortic aneurysm induction model (catheter inserted in abdominal aorta and ligated, high-fat feed)
Assay type: in vivo, SD-male rats
Conditions: for Occurrence not confirmed (abdominal aortic aneurysm) / Occurrence confirmed (abdominal aortic aneurysm): number of rats; for Rupture rate (%) of abdominal aortic aneurysm: rats with observed abdominal aortic aneurysms; for Rupture rate (%) of abdominal aortic aneurysm / Frequency of occurrence (%) (Table 4, Rupture rate of abdominal aortic aneurysm): control group 28.6%; for survival rate (%): Example 2, FIG. 1; for diameter of the aorta in the abdominal aortic aneurysm induction part: Example 2, FIG. 2, control group about 4 mm; for Occurrence not confirmed (Table 4, Rupture rate of abdominal aortic aneurysm): rupture not observed; for Frequency of occurrence (%) (Table 4, Rupture rate of abdominal aortic aneurysm): rupture rate in rats with observed abdominal aortic aneurysms
Protocol: SD-male rats of 4 weeks old (70 g to 90 g) were used. Eighteen rats and eight rats were prepared as a control group and a medium chain fatty acid administration group, respectively.
Upon arrival, all rats were preliminarily fed normal feed without additional supplements for one week. Then, the medium chain fatty acid administration group was fed normal feed and forcibly administered with high-content neutral fats (decanoic acid occupied 98% of constituent fatty acids) in an amount of 1,145 mg/kg body-weight/day. The control group was fed normal feed and forcibly administered with water in an amount of 1,145 mg/kg body-weight/day.
In this test, the medium chain fatty acid was fed in the form of tricaprin. Tricaprin is a substance in which decanoic acid (C10), a linear saturated fatty acid having 10 carbon atoms, is bonded to glycerol.
From the second week after the arrival, all rats were fed high-fat feed. Then, the medium chain fatty acid administration group was forcibly administered with the high-content neutral fats in an amount of 1,145 mg/kg body-weight/day. Furthermore, the control group was forcibly administered with water in an amount of 1,145 mg/kg body-weight/day.
Three weeks after the arrival, an abdominal aortic aneurysm induction treatment was performed. In the abdominal aortic aneurysm induction treatment, a catheter is inserted in the rat abdominal aorta and the inserted catheter is ligated with the abdominal aorta. The treatment was performed according to the method disclosed in Patent Literature 3.
After that, for the next four weeks, the control group had been fed the high-fat feed and forcibly administered with water in an amount of 1,145 mg/kg body-weight/day. Furthermore, the medium chain fatty acid administration group had been fed the high-fat feed and forcibly administered with the high-content neutral fats. Then, four weeks after the abdominal aortic aneurysm induction treatment, the rats were euthanized and dissected.
Note that the abdominal aortic aneurysm was determined to have occurred if the blood vessel at the site where the abdominal aortic aneurysm induction treatment was performed dilated to twice or more its original thickness.
Next, test results obtained by using tricaprin (an ester of three decanoic acids and glycerol) and tricaprylin (an ester of three octanoic acids of C8 and glycerol) as the medium chain fatty acid is shown. The animal model preparation method is the same as that in Example 1. A group in which tricaprin (C10) was given is referred to as a tricaprin administration group and a group in which tricaprylin (C8) was given is referred to as a tricaprylin administration group.
Twenty-three, eleven, and eighteen model animals were prepared as a control group, the tricaprylin administration group, and the tricaprin administration group, respectively.
The horizontal axis indicates the number of days (day) from Day 0 when the abdominal aortic aneurysm induction treatment was performed, and the vertical axis indicates the survival rate (%). The survival rate declined on Day 17 in the control, while the survival rate remained 100% until Day 26 in the tricaprylin administration group. […] The tricaprin administration group maintained the 100% survival rate during the test period.
Referring to FIG. 2, the horizontal axis indicates which measurements are from the normal blood vessel and which are from the blood vessel at the abdominal aortic aneurysm induction part; the vertical axis indicates the diameter (mm) of the aorta. The normal blood vessel refers to the normal aorta at the upper and lower sides of the part in which the abdominal aortic aneurysm was induced.

[1] = Example 1, number of rats among rats with observed abdominal aortic aneurysms
[2] = Example 2, number of rats among rats with observed abdominal aortic aneurysms
[3] = Example 2, 11 rats tricaprylin group, 18 rats tricaprin group

| SMILES | Frequency of occurrence (%) of abdominal aortic aneurysm (Example 1, 1,145 mg/kg body-weight/day, four weeks after induction treatment, control group 38.9%) | Rapture confirmed (abdominal aortic aneurysm) [1] | Rapture not confirmed (abdominal aortic aneurysm) [1] | Occurrence not confirmed (abdominal aortic aneurysm) (Example 1, 8 rats in group, 1,145 mg/kg body-weight/day forcibly administered, four weeks after induction treatment) | Occurrence confirmed (abdominal aortic aneurysm) (Example 1, 8 rats in group, vessel dilated to twice or more its original thickness, 1,145 mg/kg body-weight/day) | Rupture rate (%) of abdominal aortic aneurysm (Example 1, listed as Medium chain fatty acid) | Rupture rate (%) of abdominal aortic aneurysm (Example 1, listed as medium chain fatty acid) | survival rate (%) (during the test period) | diameter of the aorta in the abdominal aortic aneurysm induction part | Frequency of occurrence (%) of abdominal aortic aneurysm (Example 2, control group 30.4%) | Occurrence confirmed (Table 4, Rupture rate of abdominal aortic aneurysm) [2] | Occurrence not confirmed (Table 4, Rupture rate of abdominal aortic aneurysm) [2] | Occurrence confirmed (abdominal aortic aneurysm) [3] | Occurrence not confirmed (abdominal aortic aneurysm) [3] | Frequency of occurrence (%) (Table 4, Rupture rate of abdominal aortic aneurysm) (Example 2) | Frequency of occurrence (%) (Table 4, Rupture rate of abdominal aortic aneurysm) (Example 2, listed as tricaprin) | survival rate (%) (until Day 26 after induction treatment, control declined on Day 17) |
| --- | --- | --- | --- | --- | --- | --- | --- | --- | --- | --- | --- | --- | --- | --- | --- | --- | --- |
| CCCCCCCCCC(=O)OCC(COC(=O)CCCCCCCCC)OC(=O)CCCCCCCCC [Tricaprin] | 12.5% | 0 | 1 | 7 | 1 | 0% | 0.0% | 100% | about 2.2 mm | 5.6% | 0 | 1 | 1 | 17 | 0% | 0.0% |  |
| CCCCCCCC(=O)OCC(COC(=O)CCCCCCC)OC(=O)CCCCCCC [Tricaprylin] |  |  |  |  |  |  |  |  | about 3.5 mm | 27.3% | 1 | 2 | 3 | 8 | 33.3% |  | 100% |

From patent publication US20220323385A1, “PHARMACEUTICAL COMPOSITION FOR AORTIC ANEURYSM PROPHYLAXIS AND PROCESSED FOOD” (priority 2019, published 2022)
